Columns and labels:
female Wistar rats = experiment: Binge eating model: chow, chocolate and total food intake
CCK-4-treated rats = experiment: Elevated plus maze (EPM) after CCK-4 induced panic anxiety; type: in vivo, rat
Procedure: This example examines the effects of psilocybin on induced panic anxiety. The elevated plus maze (EPM) is a widely used behavioral assay for rodents to assess anti-panic or anti-anxiety effects of pharmacological agents. Briefly, rodents are placed at the junction of the four arms of the maze, facing an open arm, and entries/duration in each arm are recorded over a period of time. An increase in open arm activity reflects anti-anxiety behavior (Walf et al., Nature Protocols, 2007).
Panic anxiety can be induced in rodents through administration of panicogenic drugs such as cholecystokinin tetrapeptide (CCK-4). Peripheral administration of CCK-4 leads to an anxiogenic-like action in the EPM model of anxiety in rats. The anxiogenic effect of CCK-4 can be antagonized by benzodiazepine (e.g., diazepam) treatment.
Animal handling was performed on a daily basis starting 1 week before the EPM assay. CCK-4 was prepared in saline at the dosage volume of 1 mL/kg and was intraperitoneally administered to the rats 30 min before implementation of the EPM test resulting in a CCK-4 dose of 0.2 mg/kg. CCK-4 was administered to all treatment groups except for the vehicle control (saline). Treatment groups for this study are shown below in Table 33. The EPM assay was performed 2 hours, and 24 hours following administration of psilocybin, and 1 hour after administration of diazepam.
The apparatus used in the EPM assay was a PVC maze covered with Plexiglas and subdivided into four equal exploratory arms (21×8 cm). All arms were interconnected by a small platform (8×8 cm). The apparatus was placed 59 cm above the floor. Two arms were open and two arms were closed with walls (height: 21 cm).
After the appropriate pre-treatment time, the rat was placed on the platform opposite a closed arm. The number of entries and the time spent in each arm were recorded during a 5 min period. The animal was considered as entered in an arm when it placed four paws in the arm. During the trial, animal handling and the visibility of the operator was minimized as much as possible.
The results were analyzed by analysis of variance (ANOVA). Fisher's PLSD was used for pairwise comparisons and p value s 0.05 were considered significant.

[1] = 0.2 mg/kg i.p., 30 min before EPM
[2] = positive control, 1 hour after administration

Structure (SMILES): C[C@@H](Cc1ccccc1)NC(=O)[C@@H](N)CCCCN [LDX, lisdexamfetamine]
- Chocolate intake during binging session vs vehicle/binge (female Wistar rats; 0.8 mg/kg daily PO, 1 hour): significantly reduced chocolate eating
- Food intake over a 24 hour period (female Wistar rats; Day 1, 0.8 mg/kg daily PO): significantly reduced

Structure (SMILES): CSCC[C@H](NC(=O)[C@@H](N)Cc1c[nH]c2ccccc12)C(=O)N[C@@H](CC(=O)O)C(=O)N[C@@H](Cc1ccccc1)C(N)=O [CCK-4, cholecystokinin tetrapeptide]
- Number of entries into the open arm vs saline alone (CCK-4-treated rats; [1]): significantly reduced
- Time spent in the open arm vs saline alone (CCK-4-treated rats; [1]): significantly reduced

Structure (SMILES): CN1C(=O)CN=C(c2ccccc2)c2cc(Cl)ccc21 [Diazepam, diazepam]
- Number of entries into the open arms vs CCK-4 alone (CCK-4-treated rats; [2]): significant increase
- Time spent in the open arms vs CCK-4 alone (CCK-4-treated rats; [2]): significant increase

— patent US11865126B2, “Method for treating anxiety disorders, headache disorders, and eating disorders with psilocybin” (priority 2019, dated 2024)
